Results as given in US20030105014A1, “Screening assay for the identification of inhibitors of macrophage migration inhibitory factor” (priority 1996, published 2003).

What was measured:
MIF = biological target: T1, MIF (Homo sapiens, UniProt P14174); assay: MIF dopachrome tautomerase activity assay with Compound 1b as MIF-substrate; assay type: biochemical; conditions: test compound used in place of the MIF-substrate
T1 construct: made in house; host or cells: E. coli BL21(DE3), pET11b (inferred from Section 6; the Section 8 text says only 'recombinant')
T1 sequence (P14174 2-115 limits assumed): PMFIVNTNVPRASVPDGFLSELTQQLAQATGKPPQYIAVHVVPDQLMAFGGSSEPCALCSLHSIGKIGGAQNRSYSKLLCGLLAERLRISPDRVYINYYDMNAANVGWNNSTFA
Source text: The general method of performing an assay for MIF dopachrome tautomerase activity, described in more detail below, begins with the oxidation of a percursor of the MIF-substrate (e.g., DOPA-related Compound 1a [L-3-(3,4-dihydroxyphenyl) alanine methyl ester] above) and, if required, the similar oxidation of precursors of the test inhibitors (e.g., the DOPA-related Compounds 2a [L-3-(3,4-dihydroxyphenyl)-2-methyl alanine], 3a [D/L-3-(3,4-dihydroxyphenyl)-2-methyl alanine], 4a [L-3-(3,4-dihydroxyphenyl)-2-methyl alanine methyl ester] and 5a [D/L-3-(3,4-dihydroxyphenyl)-2 methyl alanine methyl ester] above). This oxidation of each precursor compound with sodium periodate generates the corresponding orange-colored dopachrome derivative; specifically, a preferred MIF-substrate (Compound 1B above) and the test inhibitors (Compounds 2b, 3b, 4b, and 5b above). Upon addition of MIF, the MIF-substrate (Compound 1b [L-3,5-dihydro-6-hydroxy-5-oxo-2H-indole-2-carboxylic acid methyl ester]) undergoes tautomerization resulting in a colorless product. In the presence of the test inhibitors (Compounds 2b, 3b, 4b, and 5b), decolorization of MIF-substrate (Compound 1b) was retarded. Test compounds 2b, 3b, 4b, and 5b themselves were unreactive in this tautomerization reaction; that is, they were not tautomerized and correspondingly decolorized by MIF dopachrome tautomerase activity if they were substituted for the MIF-substrate in this assay method.
In a preferred MIF dopachrome tautomerase activity assay procedure, the DOPA-related precursors (Compounds 1a, 2a, 3a, 4a, and 5a above) are prepared as 10 mM stock solutions in Assay Buffer (10 mM sodium phosphate, pH 6.0). About 10 minutes before the tautomerization assay, 1.0 ml of each stock solution was diluted with 8 ml of Assay Buffer, and 1.0 ml of sodium periodate stock solution (20 mM in water) was added to initiate the oxidation of the diluted precursors, thus generating each respective dopachrome derivative (i.e., Compounds 1b, 2b, 3b, 4b, and 5b) at a final concentration of 1 mM. To perform the actual tautomerization assay, 0.5 ml of the 1 mM solution of the MIF-substrate (i.e., Compound 1b) was mixed with 0.5 ml of Assay Buffer (no inhibitor control reaction) or 0.5 ml of the 1 mM dilution of the test inhibitor (e.g., Compounds 2b, 3b, 4b, or 5b), followed by addition of 10 μl of recombinant […] solution from a 20 μg/ml stock.

recombinant human MIF = recombinant human MIF (Homo sapiens, UniProt P14174); assay: biochemical; conditions: read-out: % Inhibition of MIF tautomerase activity
RAW 264.7 macrophages [1] = assay: MIF-induced nitric oxide production in macrophages (Griess reagent); assay type: cell-based, murine; conditions: 1 μg/ml, IFN-γ-primed RAW 264.7 macrophages
Method: Nitric oxide (NO) production was quantitated in MIF-conditioned RAW 264.7 and thioglycollate-elicited peritoneal exudate macrophage supernatants by measuring nitrite and nitrate content with the Griess reagent. RAW 264.7 macrophages were prepared and conditioned as described above. In some experiments, cells were incubated for 1 h with recombinant murine interferon-γ (IFN-γ) (100 IU/ml) (Boehringer-Mannheim, Indianapolis, Ind.) prior to the addition of MIF. Thioglycollate-elicited peritoneal exudate macrophages were obtained from BALB/c mice that were injected intra-peritoneally 3-4 days previously with 2 ml of sterile thioglycollate broth. Cells were harvested under strict aseptic conditions by lavage of the peritoneal cavity with 5 ml of an ice-chilled 11.6% sucrose solution. After centrifugation (10 min at 800 g), cells were resuspended in RPMI/10% FBS and plated at a density of 2×10^6 cells/ml. After 3 h of incubation, non-adherent cells (i.e. PMNs, lymphocytes) were removed with RPMI/1% FBS and the remaining adherent cells conditioned with MIF as described for RAW 264.7 cells. Trace concentrations of contaminating LPS were neutralized by incubating MIF (1 and 10 μg/ml in cell culture media) with polymyxin B at a concentration of 10 and 100 ng/ml, respectively, for 30 min at room temperature under sterile conditions. […]

RAW 264.7 macrophages [2] = assay: MIF-induced secretion of TNFα by mouse macrophages (L929 cell cytotoxicity readout); assay type: cell-based, murine
Method: TNFα production was quantitated in MIF-conditioned RAW 264.7 macrophage supernatants by L929 cell cytotoxicity as described previously (Wolpe et al., 1988, J. Exp. Med. 167: 570). RAW 264.7 macrophages were resuspended in RPMI/10% FBS, plated at 1×10^6 cells/ml, incubated for 3 hours at 37° C. in a humidified atmosphere with 5% CO2, and washed twice with RPMI/1% FBS. Cells were incubated for 12-14 hours with various doses of MIF diluted in RPMI/1% FBS. At the end of each experiment, cell culture media were collected, centrifuged (10 min at 800 g), and supplemented with 1 mM PMSF. MIF-induced TNFα activity was measured immediately afterwards.

[3] = Tautomerase activity of altered or glycated MIF proteins; assay type: biochemical
Method: A 1 mM solution of L-DOPA methyl ester was prepared in Reaction Buffer (10 mM sodium phosphate, pH 6, containing 0.5 mM EDTA). L-DOPA methyl ester was oxidized to colored L-dipachrome methyl ester by adding 10% (v/v) of a 20 mM aqueous solution of potassium periodate, following a 1:2 dilution with Reaction Buffer.
The test compound, reduced glutathione, was added in concentrations of 0.1 mM, 0.5 mM, 1.0 mM, and 2.0 mM to separate cuvettes containing the substrate solution. Approximately 100 ng of purified recombinant human MIF was added to each cuvette. […]
Purified recombinantly-produced human MIF protein was glycated by incubation in aqueous buffer in the presence of 0.5 M glucose, typically for 6 weeks in the dark at 37° C. under a nitrogen atmosphere to ensure complete glycation of susceptible residues (although other spontaneous glycation conditions will serve to glycate the protein without departing from the essence of the invention) and tested for D-dopachrome tautomerase activity by the method of Section 7 or Section 8. […] The AGE-MIF was recovered and analyzed by matrix-assisted laser desorption ionization mass spectroscopy and determined to have a mass consistent with three-fold Amadori product modification of the protein; that is, there was a mass excess of approximately 3×162 (the mass excess of a single Amadori product). […]

In the case of CC1(C(=O)O)CC2=CC(=O)C(O)=CC2=N1 [Compound 2b, L-3,5-dihydro-6-hydroxy-2-methyl-5-oxo-2H-indole-2-carboxylic acid], the “Tautomerization by MIF when substituted for the MIF-substrate” value (shortened to “Tautomerization by MIF when substituted”) (MIF) is reported as “unreactive”.

With CC1(C(=O)O)CC2=CC(=O)C(O)=CC2=N1 [Compound 3b, D/L-3,5-dihydro-6-hydroxy-2-methyl-5-oxo-2H-indole-2-carboxylic acid] the “Tautomerization by MIF when substituted” value (MIF) was “unreactive”.

For COC(=O)C1(C)CC2=CC(=O)C(O)=CC2=N1 [Compound 4b, L-3,5-dihydro-6-hydroxy-2-methyl-5-oxo-2H-indole-2-carboxylic acid methyl ester], the “Tautomerization by MIF when substituted” value (MIF) was “unreactive”.

In the case of COC(=O)C1(C)CC2=CC(=O)C(O)=CC2=N1 [Compound 5b, D/L-3,5-dihydro-6-hydroxy-2-methyl-5-oxo-2H-indole-2-carboxylic acid methyl ester], the “Tautomerization by MIF when substituted” value (MIF) is reported as “unreactive”.

In the case of N[C@@H](CCC(=O)N[C@@H](CS)C(=O)NCC(=O)O)C(=O)O [Glutathione, glutathione], the inhibition at 100 µM (recombinant human MIF) is reported as 14%, the inhibition at 500 µM (recombinant human MIF) is reported as 69% and the inhibition at 1000 µM (recombinant human MIF) is reported as 95%. It also gave an inhibition at 2000 µM (recombinant human MIF) of 100%.

B1: rhuMIF: recombinant human MIF expressed in E. coli from pET11b, native amino-terminus (protein, UniProt P14174 2-115, looked up)
Macrophage migration …: PMFIVNTNVPRASVPDGFLSELTQQLAQATGKPPQYIAVHVVPDQLMAFGGSSEPCALCSLHSIGKIGGAQNRSYSKLLCGLLAERLRISPDRVYINYYDMNAANVGWNNSTFA
For B1, the “NO production activity relative to rmuMIF” value (RAW 264.7 macrophages [1]) was “approximately 4 fold”, the “Secretion of TNFα induced by MIF” value (RAW 264.7 macrophages [2]; MIF 0.1 μg/ml) was 2.9 ± 2.4 ng/mL and the “Secretion of TNFα induced by MIF” value (RAW 264.7 macrophages [2]; MIF 1 μg/ml) was 3.4 ± 2.8 ng/mL. For the same molecule, the “Secretion of TNFα induced by MIF” value (RAW 264.7 macrophages [2]; MIF 10 μg/ml) was 3.9 ± 2.8 ng/mL and the “MIF tautomerase activity of expressed protein” value ([3]; protein expressed in E. coli) was “highly active”.

B2: AGE-MIF: recombinant human MIF glycated by incubation with 0.5 M glucose; three-fold Amadori product modification (protein, UniProt P14174 2-115, looked up)
Macrophage migration …: PMFIVNTNVPRASVPDGFLSELTQQLAQATGKPPQYIAVHVVPDQLMAFGGSSEPCALCSLHSIGKIGGAQNRSYSKLLCGLLAERLRISPDRVYINYYDMNAANVGWNNSTFA
modifications: advanced glycation end-product modified
In the case of B2, the “D-dopachrome tautomerase activity of glycated MIF” value ([3]; human MIF incubated with 0.5 M glucose, typically 6 weeks at 37° C., method of Section 7 or Section 8) is reported as “no D-dopachrome tautomerase activity”.
